The results in this text go back to ChEMBL document CHEMBL5131486, “Design, synthesis, biological evaluation and molecular modeling of N-isobutyl-N-((2-(p-tolyloxymethyl)thiazol-4yl)methyl)benzo[d][1,3] dioxole-5-carboxamides as selective butyrylcholinesterase inhibitors” (Bioorg Med Chem Lett, 2022).

Calls of active or inactive are those of the source. No cut-off for these calls is given here.

Data set [1] deals with T1, Acetylcholinesterase (Homo sapiens, UniProt P22303). In words: Inhibition of AChE (unknown origin) at 10 uM relative to control.
The target of data set [2] is T2, Cholinesterase (Homo sapiens, UniProt P06276). The data set can be described thus: Inhibition of BuchE (unknown origin) at 10 uM relative to control.
Data set [3] addresses T2, Cholinesterase. The data set can be described thus: Inhibition of BuchE (unknown origin).
A short description of data set [4]: Permeability of compound by PAMPA-BBB assay. Type of data set: ADME. Conditions: read-out: permeability. (In PAMPA a lipid-coated filter parts donor from acceptor wells.)
The target of data set [5] is T2, Cholinesterase. In words: Competitive inhibition of BuChE (unknown origin) assessed as increase in Km with constant Vmax at 0 to 400 nM using varying concentrations of substrate by Lineweaver-Burk plot analysis. Conditions: dose 0-400 nM.
Data set [6] relates to HepG2. The data set can be described thus: Cytotoxicity against human HepG2 cells assessed as reduction in cell viability at 50 uM incubated for 24 hrs by MTT assay relative to control. The data set is classed as toxicity, cell-based. As to conditions: hepg2, 24 h.
For data set [7], the system named is SH-SY5Y. In words: Cytotoxicity against human SH-SY5Y cells assessed as reduction in cell viability at 50 uM incubated for 24 hrs by MTT assay relative to control. The data set is classed as toxicity, cell-based.
For data set [8], the system named is SH-SY5Y. In words: Cytotoxicity against human SH-SY5Y cells assessed as reduction in cell viability at <20 uM incubated for 24 hrs by MTT assay. The data set is classed as toxicity, cell-based. Background: Tetrazolium dyes change colour on reduction, which living cells bring about.
Data set [9] has as its system HepG2. The data set can be described thus: Cytotoxicity against human HepG2 cells assessed as reduction in cell viability at <20 uM incubated for 24 hrs by MTT assay. Type of data set: toxicity, cell-based. As to conditions: hepg2, 24 h.
The target of data set [10] is T1, Acetylcholinesterase. In words: Inhibition of AChE (unknown origin).

T2 sequence (P06276 whole entry): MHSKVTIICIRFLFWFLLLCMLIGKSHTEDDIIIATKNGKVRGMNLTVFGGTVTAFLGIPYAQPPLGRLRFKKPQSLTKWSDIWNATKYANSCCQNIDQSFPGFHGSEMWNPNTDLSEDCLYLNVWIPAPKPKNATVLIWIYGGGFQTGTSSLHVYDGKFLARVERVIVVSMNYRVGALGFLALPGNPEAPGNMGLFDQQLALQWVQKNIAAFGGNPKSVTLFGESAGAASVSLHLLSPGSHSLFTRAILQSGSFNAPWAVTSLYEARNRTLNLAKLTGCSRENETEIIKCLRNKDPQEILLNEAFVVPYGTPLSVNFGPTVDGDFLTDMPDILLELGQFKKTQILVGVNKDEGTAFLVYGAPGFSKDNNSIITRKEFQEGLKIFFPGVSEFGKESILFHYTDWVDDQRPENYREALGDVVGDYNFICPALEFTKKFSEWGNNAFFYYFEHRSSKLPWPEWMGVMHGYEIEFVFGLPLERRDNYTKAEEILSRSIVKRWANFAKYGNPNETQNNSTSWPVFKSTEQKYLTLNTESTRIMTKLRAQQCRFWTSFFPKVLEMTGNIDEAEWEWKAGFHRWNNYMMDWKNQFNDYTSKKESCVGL
T1 sequence (P22303 whole entry): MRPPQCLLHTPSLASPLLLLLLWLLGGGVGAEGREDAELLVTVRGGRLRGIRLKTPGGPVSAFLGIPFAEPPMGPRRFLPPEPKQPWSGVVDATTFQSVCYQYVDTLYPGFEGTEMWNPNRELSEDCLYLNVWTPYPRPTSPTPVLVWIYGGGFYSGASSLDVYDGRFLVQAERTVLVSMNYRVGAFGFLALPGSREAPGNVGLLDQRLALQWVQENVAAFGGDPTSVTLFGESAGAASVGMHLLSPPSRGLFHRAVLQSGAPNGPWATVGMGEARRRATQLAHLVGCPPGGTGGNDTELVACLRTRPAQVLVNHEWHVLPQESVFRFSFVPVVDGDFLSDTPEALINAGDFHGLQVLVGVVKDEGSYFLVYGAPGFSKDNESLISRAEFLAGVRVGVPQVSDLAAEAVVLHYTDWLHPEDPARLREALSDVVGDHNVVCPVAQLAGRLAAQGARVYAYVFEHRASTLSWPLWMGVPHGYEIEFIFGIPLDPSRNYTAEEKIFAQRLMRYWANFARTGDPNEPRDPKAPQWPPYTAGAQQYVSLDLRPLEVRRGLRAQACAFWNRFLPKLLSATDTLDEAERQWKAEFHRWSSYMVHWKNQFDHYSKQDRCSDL

Turning to `COc1ccc(C(=O)N(Cc2csc(COc3ccc(C)cc3)n2)CC(C)C)cc1`, the inhibition (in general, the drop in the measured response relative to a control, in per cent) at Acetylcholinesterase [1] amounted to 4.91%; on Cholinesterase [2], 32.8%.
Take `CC(C)CN(Cc1csc(COc2ccc(F)cc2)n1)C(=O)S(=O)(=O)c1ccc2ccccc2c1`: the inhibition at Acetylcholinesterase [1] turned out to be 20.9%; at Cholinesterase [2], 40.7%.
On to `COc1cccc(C(=O)N(Cc2csc(COc3ccc(C)cc3)n2)CC(C)C)c1`, for which the values for the inhibition against Acetylcholinesterase [1] and against Cholinesterase [2] were 1.46% and 91.4%, respectively. For the same molecule, on Cholinesterase [3], the 50% inhibitory concentration (IC50) (commonly the midpoint of a concentration-inhibition curve) amounted to 970 nM.
On to `CC(=O)[C@H]1CC[C@H]2[C@@H]3CCC4=CC(=O)CC[C@]4(C)[C@H]3CC[C@]12C` [PROGESTERONE], for which, in data set [4], the Papp is 8.9 ×10⁻⁶ cm/s.
Take `Cc1ccc(OCc2nc(CN(CC(C)C)C(=O)c3cccc(F)c3)cs2)cc1`: the inhibition on Acetylcholinesterase [1] is 0.51%; at Cholinesterase [2], 78.2%. In addition, it took 2430 nM to reach half-maximal inhibition against Cholinesterase [3] (IC50).
`Cc1ccc(OCc2nc(CN(CC(C)C)C(=O)c3ccc(C)cc3)cs2)cc1` returned an IC50 on Cholinesterase [3] of 1050 nM. The inhibition against Cholinesterase [2] is 92.6%.
As for `Cc1ccc(OCc2nc(CN(CC(C)C)C(=O)c3ccccc3)cs2)cc1`, the results for the inhibition on Acetylcholinesterase [1] and on Cholinesterase [2] were 0.25% and 92%, respectively. For the same molecule, the IC50 on Cholinesterase [3] worked out at 1150 nM.
For the molecule `COCc1nc(CN(CC(C)C)C(=O)c2ccc3c(c2)OCO3)cs1`, the inhibition was 4.72% against Acetylcholinesterase [1] and 15.3% on Cholinesterase [2].
For `Cc1ccc(OCc2nc(CN(CC(C)C)C(=O)c3ccco3)cs2)cc1`, the inhibition against Acetylcholinesterase [1] was 1.61%; against Cholinesterase [2], 87.8%. Moreover, at Cholinesterase [3], the IC50 turned out to be 1670 nM.
Taken in the same sequence, the figures for `CCCCCC(=O)N(Cc1csc(COc2ccc(C)cc2)n1)CC(C)C` were 2.55%, 86.1% and 1990 nM.
The molecule `Cc1ccc(OCc2nc(CN(CC(C)C)C(=O)c3ccc(F)cc3)cs2)cc1` returned an IC50 against Cholinesterase [3] of 2210 nM. Moreover, the inhibition against Cholinesterase [2] was found to be 82.2%.
On Cholinesterase [3], `Cc1ccc(OCc2nc(CN(CC(C)C)C(=O)c3ccccc3Cl)cs2)cc1` showed an IC50 of 3940 nM. The inhibition on Cholinesterase [2] was determined as 72.4%.
As to `COc1ccccc1C(=O)N(Cc1csc(COc2ccc(C)cc2)n1)CC(C)C`, the inhibition on Acetylcholinesterase [1] was found to be 2.25%; at Cholinesterase [2] it was 26%.
Turning to `Cc1ccc(S(=O)(=O)C(=O)N(Cc2csc(COc3ccc(F)cc3)n2)CC(C)C)cc1`, the inhibition against Acetylcholinesterase [1] was found to be 14.3%; against Cholinesterase [2], 64.4%. This molecule also yielded an IC50 against Cholinesterase [3] of 6850 nM.
`CC(C)CN(Cc1csc(COc2ccc(F)cc2)n1)C(=O)c1ccc2c(c1)OCO2`: on Cholinesterase [5], the inhibition result is “Active”. In addition, the Activity in the data set on HepG2 [6] is on record as under 40%; with SH-SY5Y [7], under 40%; with SH-SY5Y [8], “Non-Toxic”; in the data set with HepG2 [9], “Non-Toxic”. In addition, the inhibition on Acetylcholinesterase [1] is -9.02%; against Cholinesterase [2], 96.4%. Moreover, in data set [4], the Papp was 4.97 ×10⁻⁶ cm/s. For the same molecule, at Cholinesterase [3], the IC50 amounted to 130 nM.
`Cc1ccc(OCc2nc(CN(CC(C)C)C(=O)S(=O)(=O)c3ccc4ccccc4c3)cs2)cc1`: the values for the inhibition against Acetylcholinesterase [1] and at Cholinesterase [2] were 18.7% and 36.5%, respectively.
Regarding `Cc1ccc(OCc2nc(CN(CC(C)C)C(=O)c3cccs3)cs2)cc1`, the inhibition against Acetylcholinesterase [1] is -0.31%; against Cholinesterase [2], 82%. Moreover, the IC50 on Cholinesterase [3] was 2300 nM.
Take `Cc1ccc(OCc2nc(CN(CC(C)C)C(=O)c3cccc(C)c3)cs2)cc1`: the inhibition against Acetylcholinesterase [1] is -5.65%; against Cholinesterase [2] it was 94.1%. Further, at Cholinesterase [3], the midpoint of inhibition, the IC50, lay at 1170 nM.
Turning to `Cc1ccc(OCc2nc(CN(CC(C)C)C(=O)c3ccc(Cl)cc3)cs2)cc1`, the inhibition is -6.51% at Acetylcholinesterase [1] and 65.5% on Cholinesterase [2]. Further, on Cholinesterase [3], the IC50 turned out to be 2230 nM.
For `CC(C)CN(Cc1csc(COc2ccc(Cl)cc2)n1)C(=O)c1ccc2c(c1)OCO2` the same measures were -9.46%, 91.2% and 240 nM.
With `CC(C)CN(Cc1csc(COc2ccc(C(F)(F)F)cc2)n1)C(=O)c1ccc2c(c1)OCO2`, the inhibition on Acetylcholinesterase [1] is 1.71%; against Cholinesterase [2] it was 65.9%. Moreover, the concentration for half-maximal inhibition (IC50) against Cholinesterase [3] worked out at 5230 nM.
With `Cc1ccc(OCc2nc(CN(CC(C)C)C(=O)S(=O)(=O)c3cccnc3)cs2)cc1`, the inhibition at Acetylcholinesterase [1] was 16.5%; at Cholinesterase [2], 48.3%.
In the case of `CN1c2ccccc2C(NCCCCCCC(=O)CCCCNc2c3c(nc4ccccc24)CCCC3)c2ccc(Cl)cc2S1(=O)=O` (centres undefined), the half-inhibitory concentration (IC50) against Acetylcholinesterase [10] is 160 nM; against Cholinesterase [3] it was 4 nM.
As to `CC(=O)N(Cc1csc(COc2ccc(C)cc2)n1)CC(C)C`, the results for the inhibition against Acetylcholinesterase [1] and against Cholinesterase [2] were 19.9% and 64.8%, respectively. The molecule further registered an IC50 on Cholinesterase [3] of 6010 nM.
As for `Cc1ccc(OCc2nc(CN(CC(C)C)C(=O)c3ccc4c(c3)OCO4)cs2)cc1`, the values for the inhibition against Acetylcholinesterase [1] and against Cholinesterase [2] were 1.76% and 87.2%, respectively. Also, on Cholinesterase [3], the IC50 was 1280 nM.
Regarding `CC(C)CN(Cc1csc(COc2ccc(F)cc2)n1)C(=O)S(=O)(=O)c1ccccc1`, the inhibition was determined as 9.12% at Acetylcholinesterase [1] and 55.1% against Cholinesterase [2]. This molecule also returned an IC50 at Cholinesterase [3] of 8190 nM.
Take `CCCC(=O)N(Cc1csc(COc2ccc(C)cc2)n1)CC(C)C`: the inhibition against Acetylcholinesterase [1] was found to be 21.2%; against Cholinesterase [2] it was 66%. For the same molecule, at Cholinesterase [3], the IC50 was determined as 4570 nM.
Turning to `Nc1c2c(nc3ccccc13)CCCC2`, the inhibition against Cholinesterase [2] worked out at 0.07%.
For the molecule `Cc1ccc(OCc2nc(CN(CC(C)C)C(=O)c3cccc(Cl)c3)cs2)cc1`, the results for the inhibition on Acetylcholinesterase [1] and against Cholinesterase [2] were -3.62% and 97%, respectively. The IC50 on Cholinesterase [3] came to 860 nM.
Molecule `CNC(=O)Oc1ccc2c(c1)[C@]1(C)CCN(C)[C@]1(C)N2C` displayed an IC50 against Cholinesterase [3] of 16 nM.
On Cholinesterase [3], `Cc1ccc(OCc2nc(CN(CC(C)C)C(=O)c3ccccc3C)cs2)cc1` showed an IC50 of 4100 nM. Also, the inhibition on Cholinesterase [2] worked out at 75.2%.
Regarding `COc1ccc(OCc2nc(CN(CC(C)C)C(=O)c3ccc4c(c3)OCO4)cs2)cc1`, the inhibition on Acetylcholinesterase [1] is -5.49%; on Cholinesterase [2], 77.8%. At Cholinesterase [3], this molecule displayed an IC50 of 1800 nM.
For the molecule `Cc1ccc(OCc2nc(CN(CC(C)C)C(=O)S(=O)(=O)c3ccccc3)cs2)cc1`, the results for the inhibition at Acetylcholinesterase [1] and against Cholinesterase [2] were 12% and 32.9%, respectively.
Taken in the same sequence, the figures for `CN(Cc1csc(COc2ccc(F)cc2)n1)C(=O)c1ccc2c(c1)OCO2` were 12.8% and 31.9%.
Turning to `Cc1ccc(OCc2nc(CN(CC(C)C)C(=O)S(=O)(=O)c3ccc(C)cc3)cs2)cc1`, the inhibition against Acetylcholinesterase [1] stood at 10.1%; at Cholinesterase [2], 38.4%.
Turning to `CCC(=O)N(Cc1csc(COc2ccc(C)cc2)n1)CC(C)C`, the inhibition at Acetylcholinesterase [1] was -2.4%; against Cholinesterase [2], 55.3%. Also, the IC50 on Cholinesterase [3] came out at 8080 nM.
The molecule `Cc1ccc(OCc2nc(CN(CC(C)C)C(=O)c3ccccc3F)cs2)cc1` registered an IC50 on Cholinesterase [3] of 1390 nM. Further, the inhibition at Cholinesterase [2] amounted to 86.6%.
Take `Cc1ccc(OCc2nc(CN(CC(C)C)C(=O)c3c(F)cccc3F)cs2)cc1`: the inhibition at Acetylcholinesterase [1] came to 0.18%; against Cholinesterase [2], 66.4%. Further, on Cholinesterase [3], inhibition was half-maximal at 4890 nM (IC50).
